From paper PMC6269799, “Synthesis and Trypanocidal Activity of Novel 2,4,5-Triaryl-N-Hydroxylimidazole Derivatives” (Molecules, 2013)
Where “and” joins values, the source holds several entries; their conditions need not be identical. Identical values can stand only once. Like-named read-outs stand apart in the source and are kept apart here. Values belong to the molecule of their own block, whether it stands above or below them.

Legend:
[1] = tested on: bloodstream trypomastigote forms of T. cruzi (Y strain); test: Activity against bloodstream trypomastigote forms; type: cell-based, Trypanosoma cruzi; settings: in vitro, mean ± standard deviation of at least four separate experiments, read-out: IC50 (trypanocidal activity)
Method: The trypanocide profiles of the new TAI derivatives 3–12 was evaluated in vitro using bloodstream trypomastigote forms of T. cruzi (Y strain) isolated from infected Swiss mice and are summarised in Table 1.
Stock solutions of NAH derivatives were prepared in DMSO. Bloodstream trypomastigote forms of T. cruzi (Y strain) were isolated from infected Swiss mice and re-suspended with Dulbecco’s modified Eagle medium plus 10% foetal calf serum (DMES) to a parasite concentration of 10 × 10^6 cells/mL. This suspension (100 μL) was added to the same volume of each NAH derivative, previously prepared at twice the desired concentrations in DMES. Stock solutions of the NAH derivatives were prepared in dimethylsulfoxide (DMSO), and they were assayed in the range of 0.5 to 2000 μg/mL. The final concentration of DMSO never exceeded 0.5%, thus, it had no deleterious effect on the parasites.

[2] = Cytotoxic effect on murine macrophages (Alamar Blue assay); type: cell-based; settings: mouse, J774 macrophage cell line, murine macrophages J774, 21 h after the treatment
Method: (§1) Cellular viability in the presence and absence of TAI derivatives (4–6) was determined using Alamar Blue assay (Invitrogen). The macrophage cell line J774 was seeded into black clear flat-bottomed 96-well plates in a density of […]. After 1 h of incubation in controlled atmosphere (5% CO2, 37 °C),cells received fresh medium with or without Tween 20 (3%), DMSO (0.5%) and the TAI compounds (1 to 100 μM) in a quadruplicate assay. After 21 h of incubation in the previous conditions, 20 μL of Alamar Blue solution was added to each well and after 3 h, fluorescence was measured using SpectraMax M5/M5^e microplate reader (Molecular Devices; λexc = 555 nm, λem = 585 nm).

[3] = tested on: macrophage cell line J774; test: as above; type: cell-based
Method: as §1

melting point: 217 to 218 °C
Molecule: Cn1c([N+](=O)[O-])cnc1-c1c(-c2ccccc2)nc(-c2ccccc2)n1O [Compound 3, 1-Methyl-5-nitro-2',5'-diphenyl-1H,3'H-2,4'-biimidazol-3'-ol]
IC50 ([1]; Trypanosoma cruzi): 108 ± 5.65 µM

Molecule: Cn1c([N+](=O)[O-])cnc1-c1c(-c2ccccc2)nc(-c2ccc(O)c(O)c2)n1O [Compound 10, 4-(3'-Hydroxy-1-methyl-5-nitro-5'-phenyl-1H,3'H-2,4'-biimidazol-2'-yl)benzene-1,2-diol]
IC50 ([1]; Trypanosoma cruzi): 360 ± 24.7 µM

Molecule: 2'-(3-Hydroxy-4-methoxy-5-nitrophenyl)-1-methyl-5-nitro-5'-phenyl-1H,3'H-2,4'-biimidazol-3'-ol [Compound 12]
IC50 [1]: 242 ± 7.54 µM

Molecule: O=C(Cn1ccnc1[N+](=O)[O-])NCc1ccccc1 [Bzn, benznidazole, reference compound]
IC50 ([1]; Trypanosoma cruzi): 10.8 ± 0.4 µM

Molecule: Cn1c([N+](=O)[O-])cnc1-c1c(-c2ccccc2)nc(-c2ccc(O)cc2)n1O [Compound 9, 2'-(4-Hydroxyphenyl)-1-methyl-5-nitro-5'-phenyl-1H,3'H-2,4'-biimidazol-3'-ol]
IC50 ([1]; Trypanosoma cruzi): 294 ± 28 µM

Molecule: Cn1c([N+](=O)[O-])cnc1-c1c(-c2ccccc2)nc(-c2ccc(F)cc2)n1O [Compound 4, 2'-(4-Fluorophenyl)-1-methyl-5-nitro-5'-phenyl-1H,3'H-2,4'-biimidazol-3'-ol]
IC50 ([1]; Trypanosoma cruzi): 67.8 ± 8.39 µM
viability at 21 h, 1 µM [2]: 94.2%
viability at 21 h, 10 µM [2]: 98.9%
viability at 21 h, 100 µM [2]: 97.6%

Molecule: Cn1c([N+](=O)[O-])cnc1-c1c(-c2ccccc2)nc(-c2ccc([N+](=O)[O-])cc2)n1O [Compound 7, 1-Methyl-5-nitro-2'-(4-nitrophenyl)-5'-phenyl-1H,3'H-2,4'-biimidazol-3'-ol]
melting point: 361 to 362 °C
IC50 ([1]; Trypanosoma cruzi): 242 ± 37.6 µM

melting point: 249 to 250 °C
Molecule: Cn1c([N+](=O)[O-])cnc1-c1c(-c2ccccc2)nc(-c2ccc(Cl)cc2)n1O [Compound 5, 2'-(4-Chlorophenyl)-1-methyl-5-nitro-5'-phenyl-1H,3'H-2,4'-biimidazol-3'-ol]
IC50 ([1]; Trypanosoma cruzi): 34.6 ± 2.43 µM
viability at 21 h, 1 µM [2]: 95.7%
viability at 21 h, 10 µM [2]: 97.6%
viability at 21 h, 100 µM [2]: 93.1%

melting point: 218 to 219 °C
Molecule: COc1ccc(-c2nc(-c3ccccc3)c(-c3ncc([N+](=O)[O-])n3C)n2O)cc1 [Compound 8, 2'-(4-Methoxyphenyl)-1-methyl-5-nitro-5'-phenyl-1H,3'H-2,4'-biimidazol-3'-ol]
IC50 ([1]; Trypanosoma cruzi): 192 ± 25.3 µM

melting point: 213 to 214 °C and 213 °C
Molecule: COc1ccc(-c2nc(-c3ccccc3)c(-c3ncc([N+](=O)[O-])n3C)n2O)cc1O [Compound 11, 2'-(3-Hydroxy-4-methoxyphenyl)-1-methyl-5-nitro-5'-phenyl-1H,3'H-2,4'-biimidazol-3'-ol]
IC50 ([1]; Trypanosoma cruzi): 200 ± 2.02 µM

Molecule: Cn1c([N+](=O)[O-])cnc1-c1c(-c2ccccc2)nc(-c2ccc(Br)cc2)n1O [Compound 6, 2'-(4-Bromophenyl)-1-methyl-5-nitro-5'-phenyl-1H,3'H-2,4'-biimidazol-3'-ol]
IC50 ([1]; Trypanosoma cruzi): 23.9 ± 4.88 µM
viability at 21 h, 1 µM [2]: 97.3%
viability at 21 h, 10 µM [2]: 97.6%
viability at 21 h, 100 µM [2]: 78.7%
effect on cell viability (in words) ([3]; 100 μM, murine macrophages): weakly reduced cell viability
cytotoxic effects (in words) ([3]; host cells (murine macrophages) at concentrations near the trypanocidal IC50): did not present cytotoxic effects
